# Test system: Japanese patients with R/R iNHL
# Assay: Phase 1 dose-escalation study: safety and tolerability (TEAEs, DLTs)
# Format: in vivo
# From the text: Japanese patients aged ≥ 20 years with R/R iNHL histologically confirmed as FL, nodal MZL, extra-nodal MZL of mucosa-associated lymphoid tissue, small lymphocytic lymphoma, lymphoplasmacytic lymphoma, Waldenström’s macroglobulinemia, or equivalent, according to World Health Organization classification, were eligible for this study. Other key eligibility criteria included being PI3K inhibitor therapy-naïve and an Eastern Cooperative Oncology Group performance status of 0 or 1. Further details of inclusion and exclusion criteria are provided in Supplementary Table 1.
# This was a multicenter, open-label, dose-escalation, phase 1 study in Japan. All patients received oral zandelisib once daily at the same time each day, at least 1 h before or 2 h after a meal (CS: continuous schedule). Each treatment cycle was 28 days. Definitions of the DLTs described in this study can be found in Supplementary Table 2. The observation period for DLTs was from day 1 of Cycle 1 to day 1 of Cycle 2. Zandelisib was administered until disease progression or unacceptable toxicity. In the event of an AE, patients could be switched to IDT. In the case of disease progression while receiving IDT, patients could be switched back to CS per the investigator’s discretion.
# A starting dose of 45 mg was set for investigating patient safety. This study adopted a standard 3 + 3 design. […] If DLTs occurred in 2 or more patients, the study was planned to be suspended pending a safety evaluation. If a DLT occurred in 1 patient, 3 further patients were added to cohort 1. If DLTs occurred in 0/3 or 1/6 patients in cohort 1, dosing in cohort 2 commenced (n = 6; 60 mg/day). If the incidence of DLTs in cohort 2 was ≤ 1/6, the maximum tolerated dose was not determined, and the dose in cohort 2 was to be selected as the recommended Japanese phase 2 dose.
# The primary endpoint was the safety [number of patients with treatment-emergent adverse events (TEAEs), based on Common Terminology Criteria for Adverse Events version 5.0] and tolerability (including laboratory values, vital signs, and electrocardiogram performance) of zandelisib in Japanese patients. Hepatobiliary disorder, aspartate/alanine (AST/ALT) increased, diarrhea/colitis, organizing pneumonia, stomatitis, or rash were defined as irAEs in this manuscript. Secondary endpoints included PK (plasma concentrations and PK parameters) and the efficacy of zandelisib. […] The PK parameters for Cycle 1 day 1 and Cycle 2 day 1 were calculated for each patient by non-compartmental analysis. PK parameters included maximum plasma drug concentration (Cmax), area under the plasma concentration–time curve (AUC) from time zero to the last measurable point (AUC0–t), the AUC from time zero to infinity (AUC0-inf), and terminal half-life (t1/2).
smiles,measurement,setting,value
CN1CCC(c2ccccc2CC(C)(C)Nc2nc(N3CCOCC3)nc(-n3c(C(F)F)nc4ccccc43)n2)CC1 [zandelisib],Grade 3 irAEs,45 mg,2 patients
same,deaths,45 mg and 60 mg,no deaths were observed
same,"TEAE ALT increased, All grades","45 mg, n = 3",2 (66.7) n (%)
same,"TEAE ALT increased, Grade ≥ 3","45 mg, n = 3",0 n (%)
same,"TEAE AST increased, All grades","45 mg, n = 3",2 (66.7) n (%)
same,"TEAE AST increased, Grade ≥ 3","45 mg, n = 3",0 n (%)
same,"TEAE Abdominal discomfort, All grades","45 mg, n = 3",0 n (%)
same,"TEAE Abdominal discomfort, Grade ≥ 3","45 mg, n = 3",0 n (%)
same,"TEAE Abdominal pain upper, All grades","45 mg, n = 3",1 (33.3) n (%)
same,"TEAE Abdominal pain upper, Grade ≥ 3","45 mg, n = 3",0 n (%)
same,"TEAE Amylase increased, All grades","45 mg, n = 3",1 (33.3) n (%)
same,"TEAE Amylase increased, Grade ≥ 3","45 mg, n = 3",0 n (%)
same,"TEAE Anemia, All grades","45 mg, n = 3",1 (33.3) n (%)
same,"TEAE Anemia, Grade ≥ 3","45 mg, n = 3",0 n (%)
same,"TEAE Arthralgia, All grades","45 mg, n = 3",1 (33.3) n (%)
same,"TEAE Arthralgia, Grade ≥ 3","45 mg, n = 3",0 n (%)
same,"TEAE Back pain, All grades","45 mg, n = 3",1 (33.3) n (%)
same,"TEAE Back pain, Grade ≥ 3","45 mg, n = 3",0 n (%)
same,"TEAE Blepharitis, All grades","45 mg, n = 3",0 n (%)
same,"TEAE Blepharitis, Grade ≥ 3","45 mg, n = 3",0 n (%)
same,"TEAE Blood and lymphatic system disorders (SOC), All grades","45 mg, n = 3",1 (33.3) n (%)
same,"TEAE Blood and lymphatic system disorders (SOC), Grade ≥ 3","45 mg, n = 3",0 n (%)
same,"TEAE Blood creatinine increased, All grades","45 mg, n = 3",0 n (%)
same,"TEAE Blood creatinine increased, Grade ≥ 3","45 mg, n = 3",0 n (%)
same,"TEAE Bradycardia, All grades","45 mg, n = 3",1 (33.3) n (%)
same,"TEAE Bradycardia, Grade ≥ 3","45 mg, n = 3",0 n (%)
same,"TEAE CMV test positive, All grades","45 mg, n = 3",1 (33.3) n (%)
same,"TEAE CMV test positive, Grade ≥ 3","45 mg, n = 3",0 n (%)
same,"TEAE Cardiac disorders (SOC), All grades","45 mg, n = 3",1 (33.3) n (%)
same,"TEAE Cardiac disorders (SOC), Grade ≥ 3","45 mg, n = 3",0 n (%)
same,"TEAE Conjunctivitis, All grades","45 mg, n = 3",1 (33.3) n (%)
same,"TEAE Conjunctivitis, Grade ≥ 3","45 mg, n = 3",0 n (%)
same,"TEAE Constipation, All grades","45 mg, n = 3",2 (66.7) n (%)
same,"TEAE Constipation, Grade ≥ 3","45 mg, n = 3",0 n (%)
same,"TEAE Cough, All grades","45 mg, n = 3",0 n (%)
same,"TEAE Cough, Grade ≥ 3","45 mg, n = 3",0 n (%)
same,"TEAE Cytomegalovirus viremia, All grades","45 mg, n = 3",1 (33.3) n (%)
same,"TEAE Decreased appetite, All grades","45 mg, n = 3",1 (33.3) n (%)
same,"TEAE Decreased appetite, Grade ≥ 3","45 mg, n = 3",1 (33.3) n (%)
same,"TEAE Diarrhea, All grades","45 mg, n = 3",2 (66.7) n (%)
same,"TEAE Diarrhea, Grade ≥ 3","45 mg, n = 3",1 (33.3) n (%)
same,"TEAE Drug hypersensitivity, All grades","45 mg, n = 3",0 n (%)
same,"TEAE Drug hypersensitivity, Grade ≥ 3","45 mg, n = 3",0 n (%)
same,"TEAE Drug-induced liver injury, All grades","45 mg, n = 3",0 n (%)
same,"TEAE Drug-induced liver injury, Grade ≥ 3","45 mg, n = 3",0 n (%)
same,"TEAE Dry eye, All grades","45 mg, n = 3",1 (33.3) n (%)
same,"TEAE Dry eye, Grade ≥ 3","45 mg, n = 3",0 n (%)
same,"TEAE Dry skin, All grades","45 mg, n = 3",1 (33.3) n (%)
same,"TEAE Dry skin, Grade ≥ 3","45 mg, n = 3",0 n (%)
same,"TEAE Dysgeusia, All grades","45 mg, n = 3",1 (33.3) n (%)
same,"TEAE Dysgeusia, Grade ≥ 3","45 mg, n = 3",0 n (%)
same,"TEAE Dyspnea, All grades","45 mg, n = 3",1 (33.3) n (%)
same,"TEAE Dyspnea, Grade ≥ 3","45 mg, n = 3",1 (33.3) n (%)
same,"TEAE Ear and labyrinth disorders (SOC), All grades","45 mg, n = 3",1 (33.3) n (%)
same,"TEAE Ear and labyrinth disorders (SOC), Grade ≥ 3","45 mg, n = 3",0 n (%)
same,"TEAE Eczema, All grades","45 mg, n = 3",0 n (%)
same,"TEAE Eczema, Grade ≥ 3","45 mg, n = 3",0 n (%)
same,"TEAE Eosinophil count increased, All grades","45 mg, n = 3",1 (33.3) n (%)
same,"TEAE Eosinophil count increased, Grade ≥ 3","45 mg, n = 3",0 n (%)
same,"TEAE Erythema multiforme, All grades","45 mg, n = 3",0 n (%)
same,"TEAE Erythema multiforme, Grade ≥ 3","45 mg, n = 3",0 n (%)
same,"TEAE Eye disorders (SOC), All grades","45 mg, n = 3",1 (33.3) n (%)
same,"TEAE Eye disorders (SOC), Grade ≥ 3","45 mg, n = 3",0 n (%)
same,"TEAE Flank pain, All grades","45 mg, n = 3",0 n (%)
same,"TEAE Flank pain, Grade ≥ 3","45 mg, n = 3",0 n (%)
same,"TEAE GGT increased, All grades","45 mg, n = 3",0 n (%)
same,"TEAE GGT increased, Grade ≥ 3","45 mg, n = 3",0 n (%)
same,"TEAE Gastrointestinal disorders (SOC), All grades","45 mg, n = 3",2 (66.7) n (%)
same,"TEAE Gastrointestinal disorders (SOC), Grade ≥ 3","45 mg, n = 3",2 (66.7) n (%)
same,"TEAE General disorders and administration site conditions (SOC), All grades","45 mg, n = 3",1 (33.3) n (%)
same,"TEAE General disorders and administration site conditions (SOC), Grade ≥ 3","45 mg, n = 3",0 n (%)
same,"TEAE Hepatic function abnormal, All grades","45 mg, n = 3",1 (33.3) n (%)
same,"TEAE Hepatic function abnormal, Grade ≥ 3","45 mg, n = 3",0 n (%)
same,"TEAE Hepatobiliary disorders (SOC), All grades","45 mg, n = 3",1 (33.3) n (%)
same,"TEAE Hepatobiliary disorders (SOC), Grade ≥ 3","45 mg, n = 3",0 n (%)
same,"TEAE Herpes simplex, All grades","45 mg, n = 3",1 (33.3) n (%)
same,"TEAE Herpes simplex, Grade ≥ 3","45 mg, n = 3",0 n (%)
same,"TEAE Herpes zoster, All grades","45 mg, n = 3",0 n (%)
same,"TEAE Herpes zoster, Grade ≥ 3","45 mg, n = 3",0 n (%)
same,"TEAE Hypoesthesia, All grades","45 mg, n = 3",1 (33.3) n (%)
same,"TEAE Hypoesthesia, Grade ≥ 3","45 mg, n = 3",0 n (%)
same,"TEAE Hypogammaglobulinemia, All grades","45 mg, n = 3",2 (66.7) n (%)
same,"TEAE Hypogammaglobulinemia, Grade ≥ 3","45 mg, n = 3",0 n (%)
same,"TEAE Immune system disorders (SOC), All grades","45 mg, n = 3",2 (66.7) n (%)
same,"TEAE Immune system disorders (SOC), Grade ≥ 3","45 mg, n = 3",0 n (%)
same,"TEAE Infections and infestations (SOC), All grades","45 mg, n = 3",2 (66.7) n (%)
same,"TEAE Infections and infestations (SOC), Grade ≥ 3","45 mg, n = 3",0 n (%)
same,"TEAE Infusion site extravasation, All grades","45 mg, n = 3",1 (33.3) n (%)
same,"TEAE Infusion site extravasation, Grade ≥ 3","45 mg, n = 3",0 n (%)
same,"TEAE Insomnia, All grades","45 mg, n = 3",1 (33.3) n (%)
same,"TEAE Insomnia, Grade ≥ 3","45 mg, n = 3",0 n (%)
same,"TEAE Investigations (SOC), All grades","45 mg, n = 3",3 (100.0) n (%)
same,"TEAE Investigations (SOC), Grade ≥ 3","45 mg, n = 3",2 (66.7) n (%)
same,"TEAE Joint effusion, All grades","45 mg, n = 3",1 (33.3) n (%)
same,"TEAE Joint effusion, Grade ≥ 3","45 mg, n = 3",0 n (%)
same,"TEAE Lymphocyte count decreased, All grades","45 mg, n = 3",2 (66.7) n (%)
same,"TEAE Lymphocyte count decreased, Grade ≥ 3","45 mg, n = 3",1 (33.3) n (%)
same,"TEAE Metabolism and nutrition disorders (SOC), All grades","45 mg, n = 3",1 (33.3) n (%)
same,"TEAE Metabolism and nutrition disorders (SOC), Grade ≥ 3","45 mg, n = 3",1 (33.3) n (%)
same,"TEAE Muscle spasms, All grades","45 mg, n = 3",1 (33.3) n (%)
same,"TEAE Muscle spasms, Grade ≥ 3","45 mg, n = 3",0 n (%)
same,"TEAE Musculoskeletal and connective tissue disorders (SOC), All grades","45 mg, n = 3",2 (66.7) n (%)
same,"TEAE Musculoskeletal and connective tissue disorders (SOC), Grade ≥ 3","45 mg, n = 3",0 n (%)
same,"TEAE Nasopharyngitis, All grades","45 mg, n = 3",2 (66.7) n (%)
same,"TEAE Nasopharyngitis, Grade ≥ 3","45 mg, n = 3",0 n (%)
same,"TEAE Nausea, All grades","45 mg, n = 3",1 (33.3) n (%)
same,"TEAE Nausea, Grade ≥ 3","45 mg, n = 3",0 n (%)
same,"TEAE Nervous system disorders (SOC), All grades","45 mg, n = 3",1 (33.3) n (%)
same,"TEAE Nervous system disorders (SOC), Grade ≥ 3","45 mg, n = 3",0 n (%)
same,"TEAE Neutrophil count decreased, All grades","45 mg, n = 3",2 (66.7) n (%)
same,"TEAE Neutrophil count decreased, Grade ≥ 3","45 mg, n = 3",1 (33.3) n (%)
same,"TEAE Oral herpes, All grades","45 mg, n = 3",1 (33.3) n (%)
same,"TEAE Oral herpes, Grade ≥ 3","45 mg, n = 3",0 n (%)
same,"TEAE Organizing pneumonia, All grades","45 mg, n = 3",1 (33.3) n (%)
same,"TEAE Organizing pneumonia, Grade ≥ 3","45 mg, n = 3",1 (33.3) n (%)
same,"TEAE Oropharyngeal pain, All grades","45 mg, n = 3",0 n (%)

# Source: publication PMC9668928, “Zandelisib (ME-401) in Japanese patients with relapsed or refractory indolent non-Hodgkin’s lymphoma: an open-label, multicenter, dose-escalation phase 1 study” (International Journal of Hematology, 2022)
